This is an account of results in paper PMC11434480, “Discovery and Optimization of Ergosterol Peroxide Derivatives as Novel Glutaminase 1 Inhibitors for the Treatment of Triple-Negative Breast Cancer” (Molecules, 2024).

Usually IC50 stands for the concentration at which inhibition is half-maximal.

Each structure is given as a SMILES string.

Data set [1] relates to A549. Nature of the data set: MTT antiproliferative assay, A549. Conditions: Homo sapiens, A549, 48 h, mean of three experiments ± SD. It counts as cell-based, human. On the technique in general: Tetrazolium assays rely on reduction of a dye to a coloured formazan, in cell work by metabolically active cells.
Method: (§2) The in vitro antiproliferative activity of the novel EP derivatives (1a–h, 2a–h, 3a–h, and 4a–h) was evaluated on four different human cancer cell lines (A549, HepG2, MCF-7, and MDA-MB-231) using an MTT assay.
(§3) Cells containing 10% fetal bovine serum (FBS; WISENT, Nanjing, China) were cultured in an L-15 culture medium (L-15, BOSTER, Wuhan, China) in an incubator at 37 °C. The cells were then inoculated into 96-well plates at a density of 5 × 10^3/well, cultured in 100 μL L-15 medium for 24 h, and incubated with the compound to be tested for 48 h. Next, 20 μL of MTT (5 mg/mL) solution was added and incubated at 37 °C for 4 h away from light. A resorption culture medium was then supplemented with 150 μL DMSO per well. The absorbance was measured at 570 nm using an enzymometer (SAFIRE2, Tecan, Swiss Confederation, Männedorf, Switzerland). The cytotoxic activity was presented in terms of half the inhibition rate.
The test system of data set [2] is MDA-MB-231. Nature of the data set: MTT antiproliferative assay, MDA-MB-231. The class given is cell-based, human.
Method: as §2, §3
Data set [3] deals with 4T1 cells. Nature of the data set: 4T1 transplanted tumor model in BALB/c mice.
Data set [4] has as its system MDA-MB-231 cells. Briefly: Annexin V-FITC/PI apoptosis assay (flow cytometry). It counts as cell-based, human. The note with it: Annexin V-FITC/PI double staining, 48 h. The procedure: (§1) To determine whether the decrease in MDA-MB-231 cell viability observed after 3g treatment was related to apoptosis, we treated MDA-MB-231 cells with 3g and assessed the changes in apoptosis.
An Annexin V FITC/PI apoptosis detection kit (Keygen Company, Nanjing, China) was employed to identify apoptotic cells. Briefly, MDA-MB-231 cells were subjected to treatment with varying concentrations of 3g or 0.1% DMSO and incubated at 37 °C for 48 h. Subsequently, the cells were harvested and resuspended in PBS at a concentration of 1 × 10^5 cells/mL. Following centrifugation at 2000 rpm/min for 5 min, 500 μL binding buffer, 5 μL Annexin V FITC, and 5 μL propidium iodide (PI) were added. The mixture was then incubated at room temperature in the absence of light for 20 min. Finally, the samples were analyzed using FACSCalibur flow cytometry (Becton, Dickinson and Company, Franklin Lakes, USA).
On the technique in general: In flow cytometry, cells or beads pass a laser one at a time.

Data set [5] has as its system MDA-MB-231 cells. The class given is cell-based, human. The note with it: 2, 4 and 8 μM, 48 h.
Data set [6] has as its system MDA-MB-231 cells. Nature of the data set: Colony formation assay. It counts as cell-based. The note with it: Homo sapiens, MDA-MB-231 colony formation, vs blank control, read-out: proliferation inhibition rate. How it is done: To explore the inhibitory effect of 3g on the proliferation of MDA-MB-231 cells, we treated MDA-MB-231 cells with different concentrations of 3g and EP.
MDA-MB-231 cells (1000 cells/well) were seeded into a 6-well plate with 2 mL L–15 culture medium and incubated at 37 °C for 24 h. Following this process, different concentrations of 3g or EP were added and incubated for an additional 24 h before the culture medium was replaced. The cells then continued to be cultured for two weeks, with the culture medium being changed twice a week. After two weeks, the cell colonies were washed with PBS, fixed using a 4% paraformaldehyde solution (Beyotime, Shanghai, China), and subsequently stained with a 0.05% crystal violet solution (Beyotime, Shanghai, China).

For data set [7], the target named is T1, human GLS1 (Homo sapiens, UniProt O94925).
T1 sequence (O94925 55-669): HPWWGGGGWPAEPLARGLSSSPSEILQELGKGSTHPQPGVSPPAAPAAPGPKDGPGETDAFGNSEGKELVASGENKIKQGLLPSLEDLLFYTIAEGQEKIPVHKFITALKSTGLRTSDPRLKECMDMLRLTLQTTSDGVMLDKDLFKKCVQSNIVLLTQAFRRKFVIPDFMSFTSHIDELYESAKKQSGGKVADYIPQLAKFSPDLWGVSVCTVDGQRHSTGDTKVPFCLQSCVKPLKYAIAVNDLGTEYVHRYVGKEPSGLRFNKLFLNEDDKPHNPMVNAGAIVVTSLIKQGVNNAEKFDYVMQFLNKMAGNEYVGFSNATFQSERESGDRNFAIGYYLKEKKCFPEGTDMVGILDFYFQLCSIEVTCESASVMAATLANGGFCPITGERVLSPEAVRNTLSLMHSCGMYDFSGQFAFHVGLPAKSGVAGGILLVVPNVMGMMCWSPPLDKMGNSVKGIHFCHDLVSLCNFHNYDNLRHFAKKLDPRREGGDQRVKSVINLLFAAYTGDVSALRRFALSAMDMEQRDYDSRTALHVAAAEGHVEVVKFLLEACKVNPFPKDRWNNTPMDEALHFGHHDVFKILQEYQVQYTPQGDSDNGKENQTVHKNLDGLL
Briefly: GLS1 inhibitor screening kit in MDA-MB-231 cells. It counts as cell-based. The note with it: 48 h, read-out: GLS1 inhibition IC50. The procedure: The GLS1 inhibitory activity of compound 3g in MDA-MB-231 cells was evaluated using a GLS1 inhibitor screening kit.
MDA-MB-231 cells were cultured for 24 h and then incubated with different concentrations of 3g or 0.1%DMSO for 48 h and washed with PBS 1–2 times. The cells were then collected, subjected to ultrasound in an ice bath for 5 min, and centrifuged at 4 °C and 1200 g for 15 min. Next, the GLS1 activity in human GLS1 was evaluated according to the manufacturer’s guidelines using a GLS1 screening kit (Sangon Biotech #D799306, Shanghai, China) in a 96-well plate (Corning # 351172, New York, NY, USA).

Data set [8] deals with MDA-MB-231 cells. Nature of the data set: Western blot of apoptosis proteins. The class given is cell-based, human. Conditions: MDA-MB-231, 48 h. The procedure:
as §1
MDA-MB-231 cells were subjected to treatment with different concentrations of 3g or 0.1% DMSO for 48 h. Subsequently, the cells were gathered, and the total protein was extracted by adding protease inhibitors and phosphatase inhibitors along with 1 × RIPA lysis buffer (Beyotime Company). The quantification of the extracted protein was carried out using a BCA kit (ComWin Biotech Company, Beijin, China). The extracted total protein, with an amount of 20 μg/well, underwent SDS–polyacrylamide gel electrophoresis (SDS-PAGE, provided by BioRad Laboratories located in Hercules, CA, USA). The protein was then wet-transferred to a PVDF membrane. Next, GLS1, Bcl-2, Bax, Cyt C, caspase-9, cleaved caspase-9, caspase-3, cleaved caspase-3, and GAPDH were incubated at 4 °C overnight. Subsequently, the secondary isotype-specific antibody, which was labeled with horseradish peroxidase, was obtained from Cell Signaling Technology. The color was developed with an ECL luminescent solution (Meilun Biotech Company, Dalian, China) and detected using a gel imager (ChemiDoc MP, BioRad Laboratories, CA, USA).

In data set [9] the test system is HepG2. Briefly: MTT antiproliferative assay, HepG2. The class given is cell-based, human. Conditions: Homo sapiens, HepG2, 48 h, mean of three experiments ± SD.
Method: as §2, §3
Data set [10] has as its system MDA-MB-231 cells. Briefly: ROS assay (DCFH-DA, confocal microscopy and flow cytometry). It counts as cell-based, human. Conditions: MDA-MB-231, different concentrations, 48 h. How it is done: Excessive ROS in tumor cells can induce tumor cell apoptosis. Nevertheless, the ROS levels in tumor cells were often influenced by glutamine. Thus, the regulation of glutamine metabolism was crucial for ROS homeostasis. In this study, laser confocal microscopy and flow cytometry were employed to detect the ROS level.
MDA-MB-231 cells were inoculated in 24-well plates at a density of 8 × 10^3 cells per well and incubated with different concentrations of 3 g or 0.1% DMSO for 48 h. The cells were washed with PBS 1–2 times. The cells were then incubated at 37 °C for 20 min with reference to a DCFH-DA fluorescent probe kit (Keygen Company, Nanjing, China) and washed with a serum-free medium 1–2 times. The ROS levels were observed via laser confocal microscopy (LSM710, Zeiss, Oberkochen, Germany) or detected with flow cytometry (FACS Calibur, Becton, Dickinson and Company, Franklin Lakes, NJ, USA).

Data set [11] concerns MCF-7. Briefly: MTT antiproliferative assay, MCF-7. It counts as cell-based, human. The note with it: Homo sapiens, MCF7, 48 h, mean of three experiments ± SD.
Method: as §2, §3
Where [12] appears, read: 25 and 50 mg/kg/2 days, intraperitoneal, 14 days.

On to `COc1ccc(NC(=O)CCCC(=O)OC2CCC3(C)C4CCC5(C)C(C(C)C=CC(C)C(C)C)CCC5C45C=CC3(C2)OO5)cc1` (stereo not drawn) [Compound 3g], for which the IC50 was 13.5 ± 1.14 µM in data set [1]; 3.2 ± 0.29 µM in data set [2] (Homo sapiens, MDA-MB-231, MTT, 48 h, mean of three experiments ± SD); 3.77 µM in data set [7]; 15.5 ± 0.63 µM in data set [9]; 4.57 ± 0.62 µM in data set [11]. Besides, in [2] (ratio of IC50 values, EP vs compound), the “fold higher activity than EP against MDA-MB-231” value is recorded as 5.4 fold. The “effect on body weights of the mice” value in data set [3] (setting [12]) was “no significant effect”. The “tumor volume and tumor weight” value in data set [3] (setting [12]) was “significantly reduced”. Further, in data set [3] (25 and 50 mg/kg/2 days, intraperitoneal, 14 days, vs blank control), the tumor growth result was “effectively inhibited”. In data set [3] (dose of 50 mg/kg), the “therapeutic effect in mouse model of breast cancer” value is recorded as “remarkable therapeutic effects”. Also, the “toxicity in mouse model of breast cancer” value in [3] (dose of 50 mg/kg) is “no apparent toxicity”. The “histopathological changes in heart, liver, spleen, lungs and kidneys (HE staining)” value in [3] (tumor-bearing mice, 14 days treatment) is given as “no histopathological changes”. In data set [4], the “apoptosis of MDA-MB-231 cells” value is listed as “increased significantly”. In addition, in [5], the “glutamate production in MDA-MB-231 cells” value is listed as “reduced the production of glutamate in MDA-MB-231 cells in a dose-dependent manner”. Besides, the inhibition at 2 µM in data set [6] was determined as 56.3%. The “expression of Bax, Cyt C, cleaved caspase-9 and cleaved caspase-3” value in [8] is reported as “significantly upregulated”. In addition, in data set [8], the “expression of Bcl-2” value was “decreased the expression”. Also, in data set [10], the “intracellular ROS level” value is recorded as “significantly elevated the intracellular ROS level”.
